Measured values published in patent publication US5922580A, “Non-reducing saccharide-forming enzyme, its preparation and uses” (priority 1992, dated 1999).

Legend:
[1] = Hygroscopicity of product; format: physicochemical; details: powdery product
[2] = test system: 7-week old dd-strain mice; experiment: Acute toxicity test, oral; format: in vivo; details: for Death of mice: oral, highest possible doses
[3] = molecular target: T1, α-glucosidase specimen derived from rice (Oryza sativa subsp. japonica, UniProt Q653V7); experiment: Hydrolysis by α-glucosidase; format: biochemical; details: 50 mM acetate buffer pH 4.0, 37° C., 18 hours
T1 construct: purchased Sigma Chemical Company, St. Louis, USA; host or cells: rice
T1 sequence (Q653V7 34-885): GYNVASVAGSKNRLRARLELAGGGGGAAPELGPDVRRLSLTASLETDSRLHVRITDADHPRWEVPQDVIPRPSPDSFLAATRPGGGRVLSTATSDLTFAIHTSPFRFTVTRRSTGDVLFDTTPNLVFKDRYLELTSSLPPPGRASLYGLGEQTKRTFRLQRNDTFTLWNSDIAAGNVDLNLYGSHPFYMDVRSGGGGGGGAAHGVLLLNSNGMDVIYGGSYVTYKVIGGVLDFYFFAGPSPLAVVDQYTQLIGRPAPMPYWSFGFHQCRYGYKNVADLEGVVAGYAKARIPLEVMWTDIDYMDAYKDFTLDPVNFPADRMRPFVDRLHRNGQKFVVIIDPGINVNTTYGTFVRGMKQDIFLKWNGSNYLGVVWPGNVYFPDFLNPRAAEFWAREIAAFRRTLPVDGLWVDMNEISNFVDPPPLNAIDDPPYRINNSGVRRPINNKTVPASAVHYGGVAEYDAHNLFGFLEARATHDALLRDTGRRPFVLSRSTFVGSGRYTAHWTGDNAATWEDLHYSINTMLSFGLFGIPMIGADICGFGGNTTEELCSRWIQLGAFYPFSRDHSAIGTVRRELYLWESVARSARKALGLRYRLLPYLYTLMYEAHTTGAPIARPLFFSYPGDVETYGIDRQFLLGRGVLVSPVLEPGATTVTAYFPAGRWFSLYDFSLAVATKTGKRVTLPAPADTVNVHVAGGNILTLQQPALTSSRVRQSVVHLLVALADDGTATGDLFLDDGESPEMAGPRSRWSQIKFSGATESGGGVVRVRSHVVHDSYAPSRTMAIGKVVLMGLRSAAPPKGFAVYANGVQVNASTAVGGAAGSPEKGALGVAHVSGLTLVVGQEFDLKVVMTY
Description: (§1) The enzymatic reaction with the α-amylase was as follows: Dissolving 10 mg of a substrate in one ml of 50 mM phosphate buffer (pH 6.9), mixing the resultant solution with one unit of the α-amylase, and incubating the resultant mixture at 37° C. for 18 hours. The enzymatic reaction with the α-glucosidase was conducted under the same conditions as in the case of α-amylase except that 50 mM acetate buffer (pH 4.0) was used as a buffer. The enzymatic reaction with the rat intestinal acetone powder was carried out under the same conditions as in the case of α-amylase except that 50 mM maleate buffer (pH 6.0) was used as a buffer.

[4] = Reducing power by Somogyi-Nelson's method expressed as DE; format: physicochemical; details: high-purity saccharide preparations of Experiment 4
Description: The reducing powders of these novel saccharides were determined on the Somogyi-Nelson's method and expressed by DE (dextrose equivalent).

β-amylase = β-amylase (Glycine max, UniProt P10538); experiment: Hydrolysis by β-amylase; format: biochemical; details: similarly as with glucoamylase
β-amylase, sequence (P10538 whole entry, species assumed): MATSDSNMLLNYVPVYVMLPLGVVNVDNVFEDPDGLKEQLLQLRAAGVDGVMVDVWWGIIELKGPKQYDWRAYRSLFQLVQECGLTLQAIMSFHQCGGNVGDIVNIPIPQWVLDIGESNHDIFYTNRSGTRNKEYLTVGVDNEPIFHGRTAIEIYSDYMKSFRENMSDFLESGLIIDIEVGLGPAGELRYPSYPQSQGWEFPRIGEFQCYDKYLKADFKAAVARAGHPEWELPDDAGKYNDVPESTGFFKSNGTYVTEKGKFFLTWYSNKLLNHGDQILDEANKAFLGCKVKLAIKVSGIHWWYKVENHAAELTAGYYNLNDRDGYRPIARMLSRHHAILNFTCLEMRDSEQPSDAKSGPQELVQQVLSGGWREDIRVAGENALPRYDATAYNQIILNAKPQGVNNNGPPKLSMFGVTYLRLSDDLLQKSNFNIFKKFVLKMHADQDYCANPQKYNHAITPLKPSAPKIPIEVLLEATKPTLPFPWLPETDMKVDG

[5] = test system: rat intestinal acetone powder; experiment: Hydrolysis by rat intestinal acetone powder; format: in vitro ADME; details: 50 mM maleate buffer pH 6.0, 37° C., 18 hours
Description: as §1

glucoamylase = experiment: Enzymatic hydrolysis by glucoamylase; format: biochemical; details: for Glucose / Trehalose: 50 mg in 1 ml 50 mM acetate buffer pH 4.5, one unit glucoamylase, 40° C., 6 hours, HPLC; for Molecular ratio (Glucose/Trehalose): glucoamylase hydrolysate
Description: Fifty mg aliquots of non-reducing saccharides P I, P II, P III, P IV and P V in Experiment 4 were respectively dissolved in one ml of 50 mM acetate buffer (pH 4.5), admixed with one unit of glucoamylase commercialized by Seikagaku-Kogyo Co., Ltd., Tokyo, Japan, to effect enzymatic hydrolysis at 40° C. for 6 hours. The only saccharides detected in every resultant mixture on HPLC analysis were glucose and trehalose.

[6] = Maillard reaction with glycine; format: physicochemical; details: for Coloration degree (480 nm): 1% glycine, 10% saccharide, 50 mM phosphate buffer pH 7.0, 100° C. for 90 min, absorbance in 1-cm cell; for Coloration degree relative to corresponding material maltooligosaccharide: Maillard reaction, 480 nm
Description: As a control, maltotriose, maltotetraose, maltopentaose, maltohexaose and maltoheptaose as a material for the saccharide preparations were similarly treated as above, and measured their absorbances were measured at a wave length of 480 nm.

[7] = molecular target: T2, α-amylase specimen derived from pig pancreas (Sus scrofa, UniProt P00690); experiment: Hydrolysis by α-amylase; format: biochemical; design: Saccharide composition of hydrolysate: P I / Saccharide composition of hydrolysate: P II / Saccharide composition of hydrolysate: G3 (maltotriose) / Saccharide composition of hydrolysate: G2 (maltose) / Saccharide composition of hydrolysate: G1 (glucose): unit not given here; details: for Hydrolysis by α-amylase: conclusion from Table 6; for Saccharide composition of hydrolysate: G1 (glucose) / Saccharide composition of hydrolysate: G2 (maltose) / Saccharide composition of hydrolysate: G3 (maltotriose) / Saccharide composition of hydrolysate: P I / Saccharide composition of hydrolysate: P II: α-amylase, 10 mg/ml, pH 6.9, 37° C., 18 hours, HPLC
T2 construct: purchased Sigma Chemical Company, St. Louis, USA; host or cells: pig pancreas
T2 sequence (P00690 16-511): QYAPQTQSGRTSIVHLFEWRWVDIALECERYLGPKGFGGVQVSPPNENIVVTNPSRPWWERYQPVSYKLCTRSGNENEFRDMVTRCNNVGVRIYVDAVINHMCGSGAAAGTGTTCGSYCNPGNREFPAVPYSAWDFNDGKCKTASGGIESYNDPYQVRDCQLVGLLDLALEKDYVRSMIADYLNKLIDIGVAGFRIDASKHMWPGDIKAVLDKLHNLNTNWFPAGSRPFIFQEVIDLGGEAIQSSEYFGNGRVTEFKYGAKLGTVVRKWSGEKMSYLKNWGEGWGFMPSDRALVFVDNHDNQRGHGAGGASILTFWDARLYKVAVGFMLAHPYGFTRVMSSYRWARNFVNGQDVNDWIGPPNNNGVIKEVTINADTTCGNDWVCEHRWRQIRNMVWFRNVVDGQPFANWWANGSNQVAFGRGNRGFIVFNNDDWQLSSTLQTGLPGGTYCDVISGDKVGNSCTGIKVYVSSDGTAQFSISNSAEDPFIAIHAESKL
Description: as §1

[8] = molecular target: T3, trehalase derived from pig kidney (Sus scrofa, UniProt I3LIR5); experiment: Hydrolysis by trehalase; format: biochemical; details: one unit trehalase, pH 5.7, 37° C., 18 hours; HPLC
T3 construct: purchased Sigma Chemical Company, St. Louis, USA; host or cells: pig kidney
T3 sequence (I3LIR5 24-583): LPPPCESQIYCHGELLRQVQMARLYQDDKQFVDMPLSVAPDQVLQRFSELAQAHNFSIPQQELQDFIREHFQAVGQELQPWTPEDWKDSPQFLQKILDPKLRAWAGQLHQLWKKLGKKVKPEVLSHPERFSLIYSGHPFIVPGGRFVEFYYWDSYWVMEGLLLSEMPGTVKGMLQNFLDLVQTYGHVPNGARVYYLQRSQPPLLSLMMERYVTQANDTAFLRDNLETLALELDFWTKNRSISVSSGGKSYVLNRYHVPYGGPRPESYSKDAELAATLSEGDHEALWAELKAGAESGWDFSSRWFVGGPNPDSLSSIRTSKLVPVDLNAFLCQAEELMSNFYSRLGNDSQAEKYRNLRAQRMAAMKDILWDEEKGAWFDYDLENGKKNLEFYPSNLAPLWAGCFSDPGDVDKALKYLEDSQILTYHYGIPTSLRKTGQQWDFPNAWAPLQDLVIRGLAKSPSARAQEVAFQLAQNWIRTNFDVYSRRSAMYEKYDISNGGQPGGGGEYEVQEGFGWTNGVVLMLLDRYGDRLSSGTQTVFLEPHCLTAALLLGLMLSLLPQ

Structure (SMILES)	Death of mice [2]	Saccharide composition of hydrolysate with α-glucosidase: Glucose [3]	Saccharide composition of hydrolysate with α-glucosidase: Other saccharides [3]	Saccharide composition of hydrolysate with α-glucosidase: Trehalose [3]	DE [4]	Hydrolysis by β-amylase (β-amylase)	Saccharide composition of hydrolysate with rat intestinal acetone powder: Glucose [5]	Saccharide composition of hydrolysate with rat intestinal acetone powder: Other saccharides [5]	Saccharide composition of hydrolysate with rat intestinal acetone powder: Trehalose [5]	Glucose (glucoamylase)	Trehalose (glucoamylase)	Molecular ratio (Glucose/Trehalose) (glucoamylase)	Coloration degree (480 nm) [6]	Coloration degree relative to corresponding material maltooligosaccharide [6]	Hydrolysis by α-amylase [7]	Saccharide composition of hydrolysate: G1 (glucose) [7]	Saccharide composition of hydrolysate: G2 (maltose) [7]	Saccharide composition of hydrolysate: G3 (maltotriose) [7]	Saccharide composition of hydrolysate: P I [7]	Saccharide composition of hydrolysate: P II [7]	other results
OC[C@H]1O[C@H](O[C@H]2O[C@H](CO)[C@@H](O)[C@H](O)[C@H]2O)[C@H](O)[C@@H](O)[C@@H]1O [Example A-6, trehalose]																					Hygroscopicity [1]: no substantial hygroscopicity
OC[C@H]1O[C@H](O[C@H]2O[C@H](CO)[C@@H](O[C@H]3O[C@H](CO)[C@@H](O[C@H]4O[C@H](CO)[C@@H](O[C@H]5O[C@H](CO)[C@@H](O)[C@H](O)[C@H]5O)[C@H](O)[C@H]4O)[C@H](O)[C@H]3O)[C@H](O)[C@H]2O)[C@H](O)[C@@H](O)[C@@H]1O [P III, α-maltotriosyl trehalose]	no mouse died	61.7%	0.2%	38.1%	0.10	one mole of maltose and one mole of P I	62.0%	0.4%	37.6%	61.4%	38.6%	3.02	0.012	3-6%	hydrolyzed by α-amylase into lower molecular weight oligosaccharides	1.2	33.0	0	61.0	4.8	
OC[C@H]1O[C@H](O[C@H]2O[C@H](CO)[C@@H](O)[C@H](O)[C@H]2O)[C@H](O)[C@@H](O)[C@@H]1O [trehalose, α, α-trehalose]																					Hydrolysis by trehalase [8]: hydrolyzed by trehalase into glucose molecules
OC[C@H]1O[C@H](O[C@H]2O[C@H](CO)[C@@H](O[C@H]3O[C@H](CO)[C@@H](O[C@H]4O[C@H](CO)[C@@H](O)[C@H](O)[C@H]4O)[C@H](O)[C@H]3O)[C@H](O)[C@H]2O)[C@H](O)[C@@H](O)[C@@H]1O [P II, α-maltosyl trehalose]	no mouse died	52.1%	0.3%	47.6%	0.35	not hydrolyzed	52.5%	0.4%	47.1%	52.0%	48.0%	2.06	0.018	3-6%	not substantially hydrolyzed	0	0.8	0.4	0	98.8	
OC[C@H]1O[C@H](O[C@H]2O[C@H](CO)[C@@H](O[C@H]3O[C@H](CO)[C@@H](O[C@H]4O[C@H](CO)[C@@H](O[C@H]5O[C@H](CO)[C@@H](O[C@H]6O[C@H](CO)[C@@H](O[C@H]7O[C@H](CO)[C@@H](O)[C@H](O)[C@H]7O)[C@H](O)[C@H]6O)[C@H](O)[C@H]5O)[C@H](O)[C@H]4O)[C@H](O)[C@H]3O)[C@H](O)[C@H]2O)[C@H](O)[C@@H](O)[C@@H]1O [P V, α-maltopentaosyl trehalose]	no mouse died	71.4%	0.3%	28.3%	0.23	two moles of maltose and one mole of P I	73.4%	0.1%	26.5%	72.9%	27.1%	5.11	0.015	3-6%	hydrolyzed by α-amylase into lower molecular weight oligosaccharides	1.0	8.6	35.3	10.2	44.9	LD50 ([2]; mouse, in vivo, po): ≥ 50000 mg/kg
